pIC50, pKi: −log10 of the molar value. Entries after “also recorded” stand apart in the source; their conditions may differ. Like-named read-outs stand apart in the source and are kept apart here.
Assays:
human P450 1A1 [1] = molecular target: T1, human P450 1A1 (Homo sapiens, UniProt P04798); assay: EROD; format: biochemical; settings: for IC50 P450 1A1: human P450 1A1 supersomes, EROD, 5 μM substrate, 37 °C, Dixon plot
T1 sequence (P04798 1-512): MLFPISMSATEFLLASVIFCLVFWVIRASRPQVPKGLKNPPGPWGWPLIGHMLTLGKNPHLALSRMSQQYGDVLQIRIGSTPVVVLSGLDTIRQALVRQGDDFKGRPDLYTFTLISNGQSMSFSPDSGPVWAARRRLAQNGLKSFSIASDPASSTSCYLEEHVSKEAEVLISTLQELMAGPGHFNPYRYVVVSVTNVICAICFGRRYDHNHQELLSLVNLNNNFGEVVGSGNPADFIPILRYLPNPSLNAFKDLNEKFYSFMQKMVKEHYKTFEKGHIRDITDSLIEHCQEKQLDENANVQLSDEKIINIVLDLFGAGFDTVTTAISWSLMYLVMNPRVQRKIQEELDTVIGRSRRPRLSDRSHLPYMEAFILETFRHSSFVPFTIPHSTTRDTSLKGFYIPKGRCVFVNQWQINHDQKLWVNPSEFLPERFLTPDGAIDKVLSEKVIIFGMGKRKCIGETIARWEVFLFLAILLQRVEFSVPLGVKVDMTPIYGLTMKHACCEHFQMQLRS

CYP1A1 = molecular target: T2, CYP1A1 (Homo sapiens, UniProt P04798); assay: Mechanism-based; format: biochemical; settings: human, human P450 1A1 supersomes, pH 7.6, probe 7-ethoxyresorufin (EROD)
T2 sequence (P04798 1-512): T1 sequence (P04798 1-512)

human P450 1A1 [2] = molecular target: T1, human P450 1A1; assay: Mechanism-based; format: biochemical
human P450 1A2 [3] = molecular target: T3, human P450 1A2 (Homo sapiens, UniProt P05177); assay: Mechanism-based; format: biochemical
T3 sequence (P05177 1-516): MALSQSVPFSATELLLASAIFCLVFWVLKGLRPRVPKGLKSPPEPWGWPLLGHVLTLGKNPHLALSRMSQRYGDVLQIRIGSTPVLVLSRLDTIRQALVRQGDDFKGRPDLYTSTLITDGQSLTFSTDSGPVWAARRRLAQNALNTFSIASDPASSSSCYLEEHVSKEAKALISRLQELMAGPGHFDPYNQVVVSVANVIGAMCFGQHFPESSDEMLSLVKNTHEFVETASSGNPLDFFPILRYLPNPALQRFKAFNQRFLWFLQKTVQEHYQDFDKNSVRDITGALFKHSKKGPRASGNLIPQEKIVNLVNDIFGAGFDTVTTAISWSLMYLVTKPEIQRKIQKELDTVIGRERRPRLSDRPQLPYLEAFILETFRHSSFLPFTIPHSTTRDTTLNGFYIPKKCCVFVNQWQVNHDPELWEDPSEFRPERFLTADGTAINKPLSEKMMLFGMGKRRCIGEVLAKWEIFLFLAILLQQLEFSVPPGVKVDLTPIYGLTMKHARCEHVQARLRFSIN

human P450 2A6 = molecular target: T4, human P450 2A6 (Homo sapiens, UniProt P11509); assay: Coumarin 7-hydroxylation inhibition assay in supersomes
T4 sequence (P11509 1-494): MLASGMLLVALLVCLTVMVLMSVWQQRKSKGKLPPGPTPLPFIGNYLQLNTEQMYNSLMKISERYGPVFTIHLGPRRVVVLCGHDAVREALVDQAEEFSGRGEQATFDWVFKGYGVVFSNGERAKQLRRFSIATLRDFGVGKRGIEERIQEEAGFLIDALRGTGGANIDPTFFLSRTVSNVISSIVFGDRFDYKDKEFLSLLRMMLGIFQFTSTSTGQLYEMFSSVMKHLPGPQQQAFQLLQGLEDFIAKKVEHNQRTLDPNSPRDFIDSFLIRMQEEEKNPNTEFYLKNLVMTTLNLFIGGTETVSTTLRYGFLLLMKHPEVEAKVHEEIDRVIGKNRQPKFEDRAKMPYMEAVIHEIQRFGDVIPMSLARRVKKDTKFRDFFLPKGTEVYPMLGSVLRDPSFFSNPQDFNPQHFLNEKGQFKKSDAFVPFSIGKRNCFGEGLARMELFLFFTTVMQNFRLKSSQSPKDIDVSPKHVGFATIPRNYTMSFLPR

rat P4502B1 = molecular target: T5, rat P4502B1 (Rattus norvegicus, UniProt P00176); assay: PROD
T5 sequence (P00176 1-491): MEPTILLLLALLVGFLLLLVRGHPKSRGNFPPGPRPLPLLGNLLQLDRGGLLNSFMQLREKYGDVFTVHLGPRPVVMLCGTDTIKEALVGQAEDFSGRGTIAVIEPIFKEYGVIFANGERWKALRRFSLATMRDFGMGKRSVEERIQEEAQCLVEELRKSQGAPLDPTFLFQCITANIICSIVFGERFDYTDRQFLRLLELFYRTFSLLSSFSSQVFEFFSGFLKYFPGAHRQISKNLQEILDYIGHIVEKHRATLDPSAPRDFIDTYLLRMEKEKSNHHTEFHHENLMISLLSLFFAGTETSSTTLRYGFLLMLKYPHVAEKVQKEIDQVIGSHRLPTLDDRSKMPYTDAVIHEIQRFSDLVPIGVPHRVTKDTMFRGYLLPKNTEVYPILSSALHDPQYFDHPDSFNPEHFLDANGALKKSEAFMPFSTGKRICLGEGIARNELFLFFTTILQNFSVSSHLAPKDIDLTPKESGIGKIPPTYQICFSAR

human P450 1A2 [4] = molecular target: T3, human P450 1A2; assay: MROD; format: biochemical
[5] = 5 min preincubation in presence and absence of NADPH

SMILES | IC50 P450 1A1 (human P450 1A1 [1]) | KI (inactivation) at 6 min (CYP1A1) | Mechanism-based inhibition of P450 1A1 (result in words) (human P450 1A1 [2]; [5]) | kinact (human P450 1A1 [2]; read-out: Kinactivation (rate constant for maximal inactivation at saturation), P450 1A1) | pKi (human P450 1A2 [3]) | Mechanism-based inhibition of P450 1A2 (result in words) (human P450 1A2 [3]; [5]) | kinact (human P450 1A2 [3]; read-out: Kinactivation, P450 1A2) | pIC50 (human P450 2A6) | pIC50 (rat P4502B1) | pIC50 (human P450 1A1 [1]) | pIC50 (human P450 1A2 [4]) | IC50 P450 1A2 (human P450 1A2 [4]; human P450 1A2 supersomes, MROD, 5 μM substrate, 37 °C, Dixon plot) | Mechanism-based inhibition of P450 1A1 (result in words) (human P450 1A1 [2]) | Mechanism-based inhibition of P450 1A2 (result in words) (human P450 1A2 [3])
Cc1cc(Cl)c2c(c1N)C(=O)c1ccccc1C2=O [Compound 1, 1-Amino-4-chloro-2-methylanthracene-9,10-dione] | submicromolar potency | 5.38 µM | act as a mechanism-based inhibitor; also recorded: demonstrated mechanism-based inhibition | 0.0262 s⁻¹ | 6.30 | act as a mechanism-based inhibitor; also recorded: demonstrated mechanism-based inhibition | 0.00133 s⁻¹ | < 4.30 | < 4.30 | – | – | – | – | –
Nc1ccc(O)c2c1C(=O)c1ccccc1C2=O [Compound 2, 1-amino-4-hydroxyanthracene-9,10-dione] | – | – | did not show mechanism-based inhibition; also recorded: does not demonstrate mechanism-based inhibition | – | – | did not show mechanism-based inhibition; also recorded: does not demonstrate mechanism-based inhibition | – | < 4.30 | 5.67 | 5.68 | 6.28 | – | – | –
CC(C)(C)C1=CC(=O)c2c(ccc(C(C)(C)C)c2O)C1=O [Compound 8, 2,6-Di-tert-butyl-5-hydroxynaphthalene-1,4-dione] | did not inhibit | – | – | – | – | – | – | < 4.30 | 5.25 | < 4.30 | < 4.30 | did not inhibit | – | –
Cc1cc(O)c2c(c1)C(=O)c1cc(O)cc(O)c1C2=O [emodin, Emodin, reference compound] | – | – | – | – | – | – | – | < 4.30 | 4.83 | – | – | – | did not cause mechanism-based inhibition | did not cause mechanism-based inhibition

Reference: paper PMC5461952 (Chemical research in toxicology, 2012)
